Data reported in patent US20210238170A1, “5,5-Difluoro- and 5-Fluoro-5-Methyl-C-Glycoside Derivatives Useful As Dual SGLT1 / SGLT2 Modulators” (Janssen Pharmaceutica NV, priority 2018, published 2021).

Target: T1, human SGLT2 (Homo sapiens, UniProt P31639)
T1 construct: expressed in transfected cells
T1 sequence (P31639 1-672): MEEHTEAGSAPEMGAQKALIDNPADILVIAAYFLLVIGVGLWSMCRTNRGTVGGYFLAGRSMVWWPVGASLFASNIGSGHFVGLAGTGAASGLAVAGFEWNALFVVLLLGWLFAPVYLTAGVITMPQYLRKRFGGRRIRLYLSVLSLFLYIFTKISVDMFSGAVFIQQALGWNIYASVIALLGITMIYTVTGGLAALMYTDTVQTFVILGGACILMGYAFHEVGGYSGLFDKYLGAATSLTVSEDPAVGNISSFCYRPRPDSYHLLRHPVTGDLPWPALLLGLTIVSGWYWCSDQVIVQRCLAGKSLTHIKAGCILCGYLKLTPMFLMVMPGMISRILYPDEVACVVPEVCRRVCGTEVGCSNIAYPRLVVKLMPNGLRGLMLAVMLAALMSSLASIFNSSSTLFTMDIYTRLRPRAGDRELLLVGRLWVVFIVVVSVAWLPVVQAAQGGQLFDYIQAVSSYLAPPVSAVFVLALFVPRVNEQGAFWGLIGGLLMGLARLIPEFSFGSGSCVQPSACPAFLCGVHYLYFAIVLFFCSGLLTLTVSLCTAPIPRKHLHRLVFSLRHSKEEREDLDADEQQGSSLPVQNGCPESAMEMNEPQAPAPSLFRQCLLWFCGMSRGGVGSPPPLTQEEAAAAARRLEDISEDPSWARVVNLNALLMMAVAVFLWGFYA
Experiment: SGLT2 in vitro assay: Na-dependent 14C-AMG uptake in CHO-K1 cells stably expressing human SGLT2
Type: cell-based
Settings: CHO-K1 cells stably expressing human SGLT2, 14C-AMG uptake; for inhibition at 0.3 µM: read-out: SGLT2 % Inh @ 0.3 μM; for IC50: compounds of formula (I) where R0 is fluoro
Procedure, shortened: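 CHO-K1 cells stably expressing human SGLT1 or SGLT2, induced with 10 mM Na-butyrate for 24 h. Compounds (0.001–10 μM) in Na+-containing HEPES/Tris buffer pH 7.4 were applied for 10 min, then 14C-AMG ([…]) for 2 h at 37°C; Na-dependent uptake read by scintillation; %-inhibition or IC50.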

inhibition at 0.3 µM | IC50 | SMILES
87.4% | 1.1 nM | COc1ccc(Cc2cc([C@@H]3O[C@H](CO)C(F)(F)[C@H](O)[C@H]3O)c(O)cc2Cl)cc1 [Compound 81, (2S,3R,4R,6R)-2-(4-chloro-2-hydroxy-5-(4-methoxybenzyl)phenyl)-5,5-difluoro-6-(hydroxymethyl)-tetrahydro-2H-pyran-3,4-diol]
90.1% | 1.3 nM | COc1cc(O)c([C@@H]2O[C@H](CO)C(F)(F)[C@H](O)[C@H]2O)cc1Cc1ccc2c(c1)CCCO2 [Compound 44, (2S,3R,4R,6R)-2-(5-(chroman-6-ylmethyl)-2-hydroxy-4-methoxyphenyl)-5,5-difluoro-6-(hydroxymethyl)tetrahydro-2H-pyran-3,4-diol]
